Source: patent US20030191144A1, “Compounds, compositions and methods for modulating beta-amyloid production” (Active Pass Pharmaceuticals, Inc., priority 2001, published 2003)

Key:
[1] = tested on: Aβ42 production and/or release from SM-4 cells; assay: Aβ42 ELISA of culture media from SM-4 cells; format: cell-based; details: 16 hrs
Protocol: Cell Lines and Pharmacological Treatments. 293 EBNA cells (InVitrogen, Carlsbad, Calif.) stably transfected with Swedish mutant β-Amyloid Precursor Protein -695 (SM4 cells) were routinely maintained in DMEM supplemented with sodium pyruvate (1 mM) and 10% fetal bovine serum. Cells were seeded into poly-D-Lysine (SIGMA) coated 6-well plates at a density of 5-7×10^5 cells per well. Subsequently, the cells were rinsed in 1 ml of PBS and treated with 10-500 μM of pirinixic acid in serum-free/phenol red-free DMEM for 16 hours.
(§1) Aβ Detection and Standardization. After the pharmacological treatment, the exposure media was collected and supplemented with 10% sample treatment buffer (40 mM sodium phosphate (pH 7.4), 40 mM triethanolamine, 0.1% Triton X-100, 200 mM NaCl, 2 mM EGTA, 0.1% Sodium azide), and assayed for either Aβ40 or Aβ42 by a calorimetric ELISA as per the manufacturer's protocol (Biosource International Inc, California). The cells were lysed in 0.1% Triton X-100 in PBS supplemented with 5 μM propridium iodide (Molecular Probes, Eugene, Oreg.) and incubated at 37° C. for 30 minutes prior to measuring fluorescence. Aβ40 and Aβ42 were standardized against propridium iodide fluorescence as a measure of total cell number. […]
as §1, with “After” for “Aβ Detection and Standardization. After”
After the pharmacological treatment, the exposure media was collected and supplemented with 10% sample treatment buffer (40 mM sodium phosphate (pH 7.4), 40 mM triethanolamine, 0.1% Triton X-100, 200 mM NaCl, 2 mM EGTA, 0.1% Sodium azide), and assayed for either Aβ40 or Aβ42 by a colorimetric ELISA as per the manufacturer's protocol (Biosource International Inc, California). The cells were lysed in 0.1% Triton X-100 in PBS supplemented with 5 μM propridium iodide (Molecular Probes, Eugene, Oreg.) and incubated at 37° C. for 30 minutes prior to measuring fluorescence. Aβ40 and Aβ42 were standardized against propridium iodide fluorescence as a measure of total cell number.

[2] = tested on: Aβ42 from human neuroblastoma cells (hDAT; SK-N-MC); assay: Aβ42 ELISA, human neuroblastoma cells transiently transfected with APPsw; format: cell-based; details: 200 μM, 24 hours, p<0.001, n=11
Protocol: Human neuroblastoma cells (hDAT; SK-N-MC stably overexpression human dopamine transporter) were routinely maintained in DMEM supplemented with sodium pyruvate (1 mM) and 10% fetal bovine serum. […] Subsequently, 48 hours post-transfection the cells were rinsed with PBS and treated with vehicle (0.1% DMSO) or 100-200 μM pirinixic acid in serum free/phenol free DMEM for 24 hours. After the pharmacological treatment, the exposure media was collected and supplemented with 10% sample treatment buffer (40 mM sodium phosphate (pH 7.4), 40 mM triethanolamine, 0.1% Triton X-100, 200 mM NaCl, 2 mM EGTA, 0.1% Sodium azide), and assayed for either Aβ40 or AP42 by a calorimetric ELISA as per the manufacturer's protocol (Biosource International Inc, California). The cells were lysed in 0.1% Triton X-100 in PBS supplemented with 5 μM Propridium Iodide (Molecular probes, Eugene, Oreg.) and incubated at 37° C. for 30 minutes prior to measuring fluorescence. Secreted Aβ40 and Aβ42 levels were standardized against propridium iodide fluorescence as a measure of total cell number. Data are expressed as a percent of control and represent the mean±SD with n=11 and statistical significance determined by ANOVA with a Tukey's post hoc test at ***p<0.001.

## Cc1cccc(Nc2cc(Cl)nc(SCC(=O)O)n2)c1C [pirinixic acid]
[1]; 50 μM, p<0.001
  decrease in Aβ42: 15%
[1]; 500 μM
  decrease in Aβ42: 60%
[2]
  decrease in Aβ42: 40%
